Experimental data published in US8952024B2, “Herbicidal pyrimidone derivatives” (E I du Pont de Nemours and Company, priority 2009, dated 2015).
Where two headings read alike, the source gives them in different places.

Assays:
Format in all cases: in vivo
[1] = system: barnyardgrass (Echinochloa crus-galli); test: Test B flooded paddy test; conditions: Echinochloa crus-galli, 360 h
Procedure, shortened: (§1)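 Rice, umbrella sedge, ducksalad and barnyardgrass were grown to the 2-leaf stage, flooded to 3 cm, and compound was applied directly to the paddy water, with that depth kept throughout. After 13 to 15 days in the greenhouse, plants were visually rated against controls on a 0 (no effect) to 100 (complete control) scale.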

rice (Oryza sativa) = test: Test B flooded paddy test; conditions: Oryza sativa
Procedure, shortened: as §1

[2] = system: ducksalad (Heteranthera limosa); test: Test B flooded paddy test; conditions: Heteranthera limosa, 360 h
Procedure, shortened: as §1

[3] = system: umbrella sedge (Cyperus difformis); test: Test B flooded paddy test; conditions: Cyperus difformis, 360 h
Procedure, shortened: as §1

[4] = system: barnyardgrass (Echinochloa crus-galli); test: Test A pre-/postemergence plant response; conditions: Echinochloa crus-galli, 240 h, read-out: Plant response rating, Barnyardgrass; for pest or weed control at 125 g/ha: 125 g ai/ha; for pest or weed control at 500 g/ha: 500 g ai/ha, approx. ten days
Procedure, shortened: (§2)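 Plants grown from seed in a loam soil and sand mix received test compounds both as a preemergence soil spray and, at the same time, as a postemergence spray at the one- to two-leaf stage. Injury was judged visually against untreated controls roughly ten days later, 0 meaning no effect and 100 complete control.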

[5] = system: velvetleaf (Abutilon theophrasti); test: Test A pre-/postemergence plant response; conditions: Abutilon theophrasti, 240 h, read-out: Plant response rating, Velvetleaf; for pest or weed control at 125 g/ha: 125 g ai/ha; for pest or weed control at 500 g/ha: 500 g ai/ha, approx. ten days
Procedure, shortened: as §2

[6] = system: pigweed (Amaranthus retroflexus); test: Test A pre-/postemergence plant response; conditions: Amaranthus retroflexus, 240 h, read-out: Plant response rating, Pigweed; for pest or weed control at 125 g/ha: 125 g ai/ha; for pest or weed control at 500 g/ha: 500 g ai/ha, approx. ten days
Procedure, shortened: as §2

[7] = system: wheat (Triticum aestivum); test: Test A pre-/postemergence plant response; conditions: Triticum aestivum, 240 h, read-out: Plant response rating, Wheat; for plant injury at 125 g/ha: 125 g ai/ha; for plant injury at 500 g/ha: 500 g ai/ha, approx. ten days
Procedure, shortened: as §2

corn (Zea mays) = test: Test A pre-/postemergence plant response; conditions: Zea mays, 240 h; for Corn plant response rating (crop injury, 0 = no effect, 100 = complete kill) at 125 g/ha: 125 g ai/ha
Procedure, shortened: as §2

[8] = system: large crabgrass (Digitaria sanguinalis); test: Test A pre-/postemergence plant response; conditions: Digitaria sanguinalis, 240 h, read-out: Plant response rating, Crabgrass, Large; for pest or weed control at 125 g/ha: 125 g ai/ha; for pest or weed control at 500 g/ha: 500 g ai/ha, approx. ten days
Procedure, shortened: as §2

[9] = system: giant foxtail (Setaria faberii); test: Test A pre-/postemergence plant response; conditions: Setaria faberi, 240 h, read-out: Plant response rating, Foxtail, Giant; for pest or weed control at 125 g/ha: 125 g ai/ha; for pest or weed control at 500 g/ha: 500 g ai/ha, approx. ten days
Procedure, shortened: as §2

[10] = system: morningglory (Ipomoea spp.); test: Test A pre-/postemergence plant response; conditions: Ipomoea, 240 h, read-out: Plant response rating, Morningglory; for pest or weed control at 125 g/ha: 125 g ai/ha; for pest or weed control at 500 g/ha: 500 g ai/ha, approx. ten days
Procedure, shortened: as §2

[11] = system: winter barley (Hordeum vulgare); test: Test B postemergence plant response
Procedure, shortened: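 Visual ratings from 0 (no effect) to 100 (complete control), made against controls 13–15 days after treatment, kept in a greenhouse. Compounds were applied postemergence to potted plants at the 1- to 4-leaf stage (2–18 cm).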

[12] = post-emergence, Postemergence, 0 to 100 scale where 0 is no effect and 100 is complete control
[13] = post-emergence, Postemergence, 0 to 100 scale, 0 = no effect, 100 = complete control
[14] = pre-emergence, Preemergence, 0 to 100 scale, 0 = no effect, 100 = complete control
[15] = pre-emergence, Preemergence, visual injury, 0 to 100 scale (0 no effect, 100 complete control)

O=C1CCCC(O)=C1C(=O)c1cnc(-c2cccnc2)n(-c2ccccc2)c1=O [Compound 113, 5-[(2-hydroxy-6-oxo-1-cyclohexen-1-yl)carbonyl]-3-phenyl-2-(3-pyridinyl)-4(3H)-pyrimidone]
20%: plant injury at 250 g/ha ([11]; Hordeum vulgare, post-emergence, Postemergence, 250 g ai/ha, scale 0 to 100 (0 no effect, 100 complete control), read-out: Plant response rating, Barley)
0%: plant injury at 250 g/ha (rice (Oryza sativa); 250 g ai/ha, flooded paddy test, visual rating on 0 to 100 scale (0 no effect, 100 complete control) after 13 to 15 days, read-out: Plant response rating, Flood, Rice) | plant injury at 62 g/ha (rice (Oryza sativa); Flood (flooded paddy test), 62 g ai/ha, scale of 0 to 100 where 0 is no effect and 100 is complete control, 13 to 15 days, read-out: Plant response rating, Rice) | plant injury at 125 g/ha [7, 12] | plant injury at 125 g/ha [7, 14] | plant injury at 500 g/ha [7, 15] | Corn plant response rating (crop injury, 0 = no effect, 100 = complete kill) at 125 g/ha (corn (Zea mays); [12]) | Corn plant response rating (crop injury, 0 = no effect, 100 = complete kill) at 125 g/ha (corn (Zea mays); [14]) | plant injury at 31 g/ha ([11]; Hordeum vulgare, post-emergence, 31 g ai/ha, postemergence, scale 0 to 100, 0 is no effect, 100 is complete control, read-out: Plant response rating, Barley)
40%: pest or weed control at 62 g/ha ([3]; Flood (flooded paddy test), 62 g ai/ha, scale of 0 to 100 where 0 is no effect and 100 is complete control, 13 to 15 days, read-out: Plant response rating, Sedge, Umbrella)
25%: pest or weed control at 62 g/ha ([2]; Flood (flooded paddy test), 62 g ai/ha, scale of 0 to 100 where 0 is no effect and 100 is complete control, 13 to 15 days, read-out: Plant response rating, Ducksalad)
60%: plant injury at 500 g/ha [7, 13] | Corn plant response rating (crop injury, 0 = no effect, 100 = complete kill) at 500 g/ha (corn (Zea mays); post-emergence, Postemergence, 500 g ai/ha, 0 to 100 scale, 0 = no effect, 100 = complete control, approx. ten days)
80%: pest or weed control at 500 g/ha [10, 15]
70%: pest or weed control at 250 g/ha ([2]; 250 g ai/ha, flooded paddy test, visual rating on 0 to 100 scale (0 no effect, 100 complete control) after 13 to 15 days, read-out: Plant response rating, Flood, Ducksalad) | pest or weed control at 250 g/ha ([3]; 250 g ai/ha, flooded paddy test, visual rating on 0 to 100 scale (0 no effect, 100 complete control) after 13 to 15 days, read-out: Plant response rating, Flood, Sedge, Umbrella) | pest or weed control at 125 g/ha [4, 12] | pest or weed control at 125 g/ha [8, 14] | pest or weed control at 125 g/ha [9, 14]
5: Barley plant response rating (0 to 100 scale) ([11]; 62 g ai/ha, postemergence, 0 is no effect, 100 is complete control, 13 to 15 days)
100%: pest or weed control at 125 g/ha [5, 12] | pest or weed control at 500 g/ha [5, 13] | pest or weed control at 125 g/ha [5, 14] | pest or weed control at 500 g/ha [5, 15] | pest or weed control at 125 g/ha [6, 12] | pest or weed control at 500 g/ha [6, 13] | pest or weed control at 125 g/ha [6, 14] | pest or weed control at 500 g/ha [6, 15] | pest or weed control at 125 g/ha [8, 12] | pest or weed control at 500 g/ha [8, 13] | pest or weed control at 500 g/ha [8, 15] | pest or weed control at 500 g/ha [9, 13] | pest or weed control at 125 g/ha [10, 12] | pest or weed control at 500 g/ha [10, 13]
15%: pest or weed control at 250 g/ha ([1]; 250 g ai/ha, flooded paddy test, visual rating on 0 to 100 scale (0 no effect, 100 complete control) after 13 to 15 days, read-out: Plant response rating, Flood, Barnyardgrass)
10%: pest or weed control at 62 g/ha ([1]; Flood (flooded paddy test), 62 g ai/ha, scale of 0 to 100 where 0 is no effect and 100 is complete control, 13 to 15 days, read-out: Plant response rating, Barnyardgrass) | pest or weed control at 125 g/ha [4, 14]
30%: pest or weed control at 125 g/ha [10, 14]
5%: plant injury at 125 g/ha ([11]; Hordeum vulgare, post-emergence, Postemergence, 125 g ai/ha, scale 0 to 100 (0 no effect, 100 complete control), read-out: Plant response rating, Barley)
90%: pest or weed control at 500 g/ha [4, 13] | pest or weed control at 500 g/ha [4, 15] | pest or weed control at 125 g/ha [9, 12] | pest or weed control at 500 g/ha [9, 15]
